This is an account of results in US11999727B2 (Tango Therapeutics, Inc., priority 2020, dated 2024).

For experiment [1], the system named is HAP1 MTAP-deleted cell line. In words: Viability assay, MTAP-deleted cell line. It is filed as cell-based. To be noted: Homo sapiens, read-out: HAP1 MTAP deleted viability. An excerpt:
Table 1 additionally indicates IC50 values in a viability assay for the MTAP-deleted cell line (column 10), indicating the effect of treatment with compound on cell survival.

The target in experiment [2] is T1, PRMT5 (Homo sapiens, UniProt O14744).
T1 construct: purchased Viva (custom protein)
In words: PRMT5 biochemical IC50 assay with no cofactor. As to conditions: PRMT5, no cofactor; read-out: No Cofactor/rel IC50. From the text: Table 1 indicates IC50 values (μM) against PRMT5 for exemplary compounds in the presence of SAM as cofactor, with no cofactor, and with MTA as cofactor, respectively (columns 4-6). […] Ki values can be calculated from the IC50 values as described in the Examples section. As detailed in the Examples section, for the assay performed in the presence of SAM, IC50=Ki×1.5 (Ki=IC50/1.5).

The target in experiment [3] is T1, PRMT5. Put plainly: PRMT5 biochemical IC50 assay with MTA as cofactor. As to conditions: PRMT5, MTA as cofactor; read-out: MTA IC50.
Experiment [4] addresses T1, PRMT5. Put plainly: PRMT5 biochemical IC50 assay with SAM as cofactor. As to conditions: PRMT5, SAM as cofactor; read-out: SAM IC50.
The mark [5] stands for this setting: HAP1, viability assay, MTAP-deleted cell line.
Where [6] appears, read: HAP1, viability IC50, MTAP-deleted cell line.

SMILES strings stand for the structures. Like-named read-outs stand apart in the source and are kept apart here.

T1 sequence (O14744 whole entry): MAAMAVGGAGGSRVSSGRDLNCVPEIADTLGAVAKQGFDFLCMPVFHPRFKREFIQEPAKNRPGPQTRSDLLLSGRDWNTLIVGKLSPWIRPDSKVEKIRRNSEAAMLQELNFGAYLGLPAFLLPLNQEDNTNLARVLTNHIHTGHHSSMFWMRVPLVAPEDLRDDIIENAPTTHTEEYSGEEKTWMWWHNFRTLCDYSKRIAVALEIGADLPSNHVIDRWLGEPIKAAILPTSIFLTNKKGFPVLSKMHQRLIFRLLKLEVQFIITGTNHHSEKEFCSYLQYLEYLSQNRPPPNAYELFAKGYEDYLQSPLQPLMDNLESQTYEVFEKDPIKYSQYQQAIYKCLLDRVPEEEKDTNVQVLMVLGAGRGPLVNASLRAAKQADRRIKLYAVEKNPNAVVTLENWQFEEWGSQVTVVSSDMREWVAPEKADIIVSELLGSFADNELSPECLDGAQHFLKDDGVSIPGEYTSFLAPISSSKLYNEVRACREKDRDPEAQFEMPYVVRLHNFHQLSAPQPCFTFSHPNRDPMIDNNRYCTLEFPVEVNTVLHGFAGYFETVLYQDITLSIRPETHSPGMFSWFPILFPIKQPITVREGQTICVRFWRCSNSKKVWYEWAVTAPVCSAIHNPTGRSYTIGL
T1 sequence (Q9BQA1 whole entry partner): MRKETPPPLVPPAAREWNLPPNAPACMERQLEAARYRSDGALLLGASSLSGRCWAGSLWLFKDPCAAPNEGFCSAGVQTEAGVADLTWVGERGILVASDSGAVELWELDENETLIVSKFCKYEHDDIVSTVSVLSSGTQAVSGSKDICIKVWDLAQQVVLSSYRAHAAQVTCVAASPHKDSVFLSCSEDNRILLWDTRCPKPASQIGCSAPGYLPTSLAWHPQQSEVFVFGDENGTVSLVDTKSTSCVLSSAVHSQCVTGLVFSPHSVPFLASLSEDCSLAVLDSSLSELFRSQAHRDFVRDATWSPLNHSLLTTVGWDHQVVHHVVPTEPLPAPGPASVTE

As to `Cc1cc(NC(=O)C(=O)N2C[C@@H](C)CC[C@@H]2[C@H]2CC[C@@H](O)CC2)cnc1N` (single isomer, unassigned) [Compound 423], the IC50 is above 10 µM in experiment [1] (setting [5]), above 0.5 µM on PRMT5 [2], above 0.5 µM at PRMT5 [3] and above 0.5 µM at PRMT5 [4].
As for `CNc1ccc([C@@H]2CC[C@@H](C)CN2C(=O)C(=O)Nc2cncc(C(N)=O)c2)cc1` (single isomer, unassigned) [Compound 424], the IC50 in experiment [1] (setting [5]) was above 10 µM; on PRMT5 [2] it was above 0.5 µM; on PRMT5 [3] it was above 0.5 µM; on PRMT5 [4], above 0.5 µM.
On to `C[C@H]1CC[C@H](c2ccc3c(c2)CCCN3)N(C(=O)C(=O)Nc2cncc(C(N)=O)c2)C1` (single isomer, unassigned) [Compound 426], for which the IC50 in experiment [1] (setting [5]) was above 10 µM; on PRMT5 [2], above 0.5 µM; on PRMT5 [3], above 0.5 µM; on PRMT5 [4] it was above 0.5 µM.
Turning to `Cc1cc(NC(=O)C(=O)N2C[C@@H](C)CC[C@@H]2[C@H]2CC[C@H](O)CC2)cnc1N` (single isomer, unassigned) [Compound 434], the IC50 is above 10 µM in experiment [1] (setting [5]), above 0.5 µM at PRMT5 [2], above 0.5 µM at PRMT5 [3] and above 0.5 µM at PRMT5 [4].
Consider `C[C@@H]1CC[C@@H](c2ccccc2)N(C(=O)C(=O)Nc2cncc(C(N)=O)c2)[C@@H]1C` (single isomer, unassigned) [Compound 435], for which the IC50 in experiment [1] (setting [5]) was above 10 µM; on PRMT5 [2], above 0.5 µM; on PRMT5 [3], above 0.5 µM; at PRMT5 [4], above 0.5 µM.
Regarding `C[C@@H]1CC[C@@H](c2cccc(Cl)c2)N(C(=O)C(=O)Nc2cncc(C(N)=O)c2)C1` (single isomer, unassigned) [Compound 441], the IC50 was above 10 µM in experiment [1] (setting [5]), above 0.5 µM on PRMT5 [2], above 0.5 µM at PRMT5 [3] and above 0.5 µM on PRMT5 [4].
As to `CNc1ccc([C@H]2CC[C@H](C)CN2C(=O)C(=O)Nc2cncc(C(N)=O)c2)cn1` (single isomer, unassigned) [Compound 444], the IC50 in experiment [1] (setting [5]) is above 10 µM; at PRMT5 [2] it was above 0.5 µM; on PRMT5 [3], above 0.5 µM; at PRMT5 [4], above 0.5 µM.
For the compound `COc1ncc(NC(=O)C(=O)N2C[C@@H](C)CC[C@@H]2c2ccc(F)cc2)cc1C(N)=O` (single isomer, unassigned) [Compound 445], the IC50 in experiment [1] (setting [5]) was above 10 µM; on PRMT5 [2], above 0.5 µM; on PRMT5 [3], above 0.5 µM; on PRMT5 [4] it was above 0.5 µM.
Turning to `CNc1cccc([C@H]2CC[C@H](C)CN2C(=O)C(=O)Nc2cnc(N)c(C)c2)c1` (single isomer, unassigned) [Compound 450], the IC50 is above 10 µM in experiment [1] (setting [5]), above 0.5 µM at PRMT5 [2], above 0.5 µM on PRMT5 [3] and above 0.5 µM at PRMT5 [4].
Turning to `CC(=O)Nc1ccc([C@H]2CC[C@H](C)CN2C(=O)C(=O)Nc2cncc(C(N)=O)c2)cc1` (single isomer, unassigned) [Compound 452], the IC50 in experiment [1] (setting [5]) is above 10 µM; at PRMT5 [2], above 0.5 µM; on PRMT5 [3], above 0.5 µM; on PRMT5 [4] it was above 0.5 µM.
Take `C[C@H]1CC[C@H](c2ccc(NCC(F)(F)F)cc2)N(C(=O)C(=O)Nc2cncc(C(N)=O)c2)C1` (single isomer, unassigned) [Compound 456]: the IC50 is above 10 µM in experiment [1] (setting [5]), above 0.5 µM at PRMT5 [2], above 0.5 µM at PRMT5 [3] and above 0.5 µM at PRMT5 [4].
`COc1ncc(NC(=O)C(=O)N2C[C@@H](C)CC[C@@H]2c2ccc3c(c2)CCC(=O)N3)cc1C(N)=O` (single isomer, unassigned) [Compound 673]: the IC50 is above 10 µM in experiment [1] (setting [6]), above 0.5 µM on PRMT5 [2], above 0.5 µM at PRMT5 [3] and above 0.5 µM on PRMT5 [4].
As for `Cc1cc(NC(=O)C(=O)N2C[C@H](C)CC[C@H]2c2cc(Cl)cc(C(F)(F)F)c2)cnc1N` (single isomer, unassigned) [Compound 679], the IC50 is above 10 µM in experiment [1] (setting [6]), above 0.5 µM on PRMT5 [2], 0.05 to 0.5 µM on PRMT5 [3] and above 0.5 µM on PRMT5 [4].
